Experimental data published in patent US20260356851A1, “TRICYCLIC COMPOUNDS AND USES THEREOF” (HUTCHMED LIMITED, priority 2023, published 2026).

What was measured:
Type in all cases: cell-based
[1] = biological target: T1, pERK1/2 (Thr202/Tyr204), NCI-1H358 (KRAS G12C) (Homo sapiens, UniProt P01116, G12C); assay: Assay of intracellular pERK1/2 (Thr202/Tyr204) phosphorylation in NCI-H358 cells (KRAS G12C); settings: pERK1/2, 2 days, read-out: NCI-H358 (KRAS G12C) IC50
T1 construct: pERK1/2 HTRF read-out
T1 sequence (P01116 1-188 isoform P01116-2 G12C): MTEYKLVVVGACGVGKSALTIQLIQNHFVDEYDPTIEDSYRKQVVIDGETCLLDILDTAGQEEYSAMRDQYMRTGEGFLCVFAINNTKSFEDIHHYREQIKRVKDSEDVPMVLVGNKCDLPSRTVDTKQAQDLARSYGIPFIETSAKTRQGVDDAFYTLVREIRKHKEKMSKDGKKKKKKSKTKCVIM
How it was run: (§1)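 Cells (10000-12000/well) exposed to 3-fold compound dilutions for 2 days at 37 °C, then lysed; pERK1/2 (Thr202/Tyr204) measured by HTRF with d2 and cryptate antibodies, 665/615 nm ratio.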

[2] = biological target: T2, pERK1/2 (Thr202/Tyr204), NCI-1H441 (KRAS G12V) (Homo sapiens, UniProt P01116, G12V); assay: Assay of intracellular pERK1/2 (Thr202/Tyr204) phosphorylation in NCI-H441 cells (KRAS G12V); settings: pERK1/2, 2 days, read-out: NCI-H441 (KRAS G12V) IC50
T2 construct: pERK1/2 HTRF read-out
T2 sequence (P01116 1-188 isoform P01116-2 G12V): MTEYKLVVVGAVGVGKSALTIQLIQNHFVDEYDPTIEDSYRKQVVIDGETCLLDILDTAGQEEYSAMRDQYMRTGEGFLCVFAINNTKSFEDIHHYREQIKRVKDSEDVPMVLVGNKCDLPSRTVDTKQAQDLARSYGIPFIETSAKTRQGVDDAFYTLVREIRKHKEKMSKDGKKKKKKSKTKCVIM
How it was run: as §1

[3] = biological target: T3, pERK1/2 (Thr202/Tyr204), PANC-1 (KRAS G121D) (Homo sapiens, UniProt P01116, G12D); assay: Assay of intracellular pERK1/2 (Thr202/Tyr204) phosphorylation in PANC-1 cells (KRAS G12D); settings: pERK1/2, 2 days, read-out: PANC-1 (KRAS G12D) IC50
T3 construct: pERK1/2 HTRF read-out
T3 sequence (P01116 1-188 isoform P01116-2 G12D): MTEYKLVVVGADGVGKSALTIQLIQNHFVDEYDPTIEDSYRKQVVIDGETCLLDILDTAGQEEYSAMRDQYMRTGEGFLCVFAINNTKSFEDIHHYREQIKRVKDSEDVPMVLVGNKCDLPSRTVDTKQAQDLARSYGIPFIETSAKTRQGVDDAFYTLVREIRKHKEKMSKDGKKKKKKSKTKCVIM
How it was run: as §1

Structure (SMILES): CC[C@H]1COc2nc(-c3c(C(F)(F)F)c(C)cc4[nH]ncc34)c(F)c3nc(OC[C@@]45CCCN4C[C@H](F)C5)nc(c23)N1C(C)c1cccnc1N (stereo partly drawn) [Compound 387]
- IC50 [1]: 2 nM
- IC50 [2]: 5 nM
- IC50 [3]: 17 nM

Structure (SMILES): Cc1cc2[nH]ncc2c(-c2nc3c4c(nc(OC[C@@]56CCCN5C[C@H](F)C6)nc4c2F)N(C(C)c2cccnc2N)[C@H]2CCOC[C@@H]2O3)c1C(F)(F)F (stereo partly drawn) [Compound 388]
- IC50 [1]: > 100 nM
- IC50 [2]: > 100 nM
- IC50 [3]: > 100 nM

Structure (SMILES): Cc1cc2[nH]ncc2c(-c2nc3c4c(nc(OC[C@@]56CCCN5C[C@H](F)C6)nc4c2F)N(C(C)c2cccnc2N)[C@H]2CCC[C@H]2O3)c1C(F)(F)F (stereo partly drawn) [Compound 389]
- IC50 [1]: 60 nM
- IC50 [2]: > 100 nM
- IC50 [3]: > 100 nM

Structure (SMILES): Cc1cc2[nH]ncc2c(-c2nc3c4c(nc(OC[C@@]56CCCN5C[C@H](F)C6)nc4c2F)N([C@H](C)c2cccnc2N)[C@@H](C2CC2)CO3)c1C(F)(F)F [Compound 390]
- IC50 [1]: 11 nM
- IC50 [2]: 31 nM
- IC50 [3]: > 100 nM

Structure (SMILES): Cc1cc2[nH]ncc2c(-c2nc3c4c(nc(OC[C@@]56CCCN5C[C@H](F)C6)nc4c2F)N([C@@H](C)c2cccnc2N)[C@@H](C2CC2)CO3)c1C(F)(F)F [Compound 391]
- IC50 [1]: > 100 nM
- IC50 [2]: > 100 nM
- IC50 [3]: > 100 nM

Structure (SMILES): Cc1cc2[nH]ncc2c(-c2nc3c4c(nc(OC[C@@]56CCCN5C[C@H](F)C6)nc4c2F)N(C(C)c2cccnc2N)[C@@H]2COCC[C@H]2O3)c1C(F)(F)F (stereo partly drawn) [Compound 392]
- IC50 [1]: > 100 nM
- IC50 [2]: > 100 nM
- IC50 [3]: > 100 nM

Structure (SMILES): Cc1cc2[nH]ncc2c(-c2nc3c4c(nc(OC[C@@]56CCCN5C[C@H](F)C6)nc4c2F)N(C(C)c2cccnc2N)[C@H]2CCC[C@@H]2O3)c1C(F)(F)F (stereo partly drawn) [Compound 393]
- IC50 [1]: > 100 nM
- IC50 [2]: > 100 nM
- IC50 [3]: > 100 nM

Structure (SMILES): Cc1c(C(F)(F)F)c(-c2nc3c4c(nc(OCC5(CN(C)CCO)CC5)nc4c2F)N(C(C)c2cccnc2N)[C@@H](C)CO3)c2cn[nH]c2c1F (stereo partly drawn) [Compound 394, (*)2-(((1-((((9S)-10-(1-(2-aminopyridin-3-yl)ethyl)-4-fluoro-5-(7-fluoro-6-methyl-5-(trifluoromethyl)-1H-indazol-4-yl)-9-methyl-9,10-dihydro-8H-7-oxa-1,3,6,10-tetraazacyclohepta[de]naphthalen-2-yl)oxy)methyl)cyclopropyl)methyl)(methyl)amino)ethan-1-ol]
- IC50 [1]: 1 nM
- IC50 [2]: 2 nM
- IC50 [3]: 36 nM

Structure (SMILES): Cc1c(C(F)(F)F)c(-c2nc3c4c(nc(OCC5(CN(C)C6CC6)CC5)nc4c2F)N(C(C)c2cccnc2N)[C@@H](C)CO3)c2cn[nH]c2c1F (stereo partly drawn) [Compound 395]
- IC50 [1]: 1 nM
- IC50 [2]: 4 nM
- IC50 [3]: 21 nM

Structure (SMILES): Cc1c(C(F)(F)F)c(-c2nc3c4c(nc(OCC5(CN(C)C)CC5)nc4c2F)N(C(C)c2cccnc2N)[C@@H](C)CO3)c2cn[nH]c2c1F (stereo partly drawn) [Compound 396]
- IC50 [1]: < 0.457 nM
- IC50 [2]: 1 nM
- IC50 [3]: 6 nM

Structure (SMILES): CCc1c(F)ccc2cc(O)cc(-c3nc4c5c(nc(OCC6(CN(C)C7CC7)CC6)nc5c3F)N(C(C)c3cccnc3N)[C@@H](C)CO4)c12 (stereo partly drawn) [Compound 397]
- IC50 [1]: < 0.457 nM
- IC50 [2]: 0.8 nM
- IC50 [3]: 0.7 nM

Structure (SMILES): CC(c1cccnc1N)N1c2nc(OC[C@@]34CCCN3C[C@H](F)C4)nc3c(F)c(-c4c5ccccc5cc5[nH]ncc45)nc(c23)O[C@H]2CCC[C@@H]21 (stereo partly drawn) [Compound 398]
- IC50 [1]: 212 nM
- IC50 [2]: 472 nM
- IC50 [3]: 264 nM

Structure (SMILES): C[C@H](c1cccnc1N)N1c2nc(OC[C@@]34CCCN3C[C@H](F)C4)nc3c(F)c(-c4c5ccccc5cc5[nH]ncc45)nc(c23)O[C@@H]2CCC[C@@H]21 [Compound 399]
- IC50 [1]: 65 nM
- IC50 [2]: 57 nM
- IC50 [3]: 403 nM

Structure (SMILES): C[C@@H](c1cccnc1N)N1c2nc(OC[C@@]34CCCN3C[C@H](F)C4)nc3c(F)c(-c4c5ccccc5cc5[nH]ncc45)nc(c23)O[C@@H]2CCC[C@@H]21 [Compound 400]
- IC50 [1]: 676 nM
- IC50 [2]: > 1000 nM
- IC50 [3]: 831 nM

Structure (SMILES): Cc1n[nH]c2cc3ccccc3c(-c3nc4c5c(nc(OC[C@@]67CCCN6C[C@H](F)C7)nc5c3F)N(C(C)c3cccnc3N)[C@@H](C)CO4)c12 (stereo partly drawn) [Compound 401]
- IC50 [1]: 0.3 nM
- IC50 [2]: 0.4 nM
- IC50 [3]: 0.3 nM

Structure (SMILES): Cc1n[nH]c2cc3ccccc3c(-c3cc4nc(OC[C@@]56CCCN5C[C@H](F)C6)nc5c4c(n3)OC[C@H](C)N5C(C)c3cccnc3N)c12 (stereo partly drawn) [Compound 402]
- IC50 [1]: 0.4 nM
- IC50 [2]: 0.6 nM
- IC50 [3]: 0.4 nM

Structure (SMILES): CC(c1cccnc1N)N1c2nc(OC[C@@]34CCCN3C[C@H](F)C4)nc3cc(-c4c5ccccc5cc5[nH]nc(C6CC6)c45)nc(c23)OC[C@@H]1C (stereo partly drawn) [Compound 403]
- IC50 [1]: 112 nM
- IC50 [2]: 308 nM
- IC50 [3]: 997 nM
